Stability and tmax data for two compounds are collected here from patent US5254728A, “Complexes containing S(+)-phenyl alkanoic acids and α-hydroxyalkanoic” (priority 1990, dated 1993).

The conditions of data set [1]: pH 9.5; cited from earlier work.
The conditions of data set [2]: in vivo.

For `CC(O)C(=O)O` (centres unmarked) [lactic acid], the stability entry in data set [1] is reported as “not being stable”.
On to “S(+)-ibuprofen-L-(+)-lactic acid complex”, for which the tmax in data set [2] was found to be 20 min.
